Kd data for eleven molecules are collected here from patent US12612410B2 (CHILDREN'S HOSPITAL MEDICAL CENTER, priority 2020, dated 2026).

Structures are written as SMILES. Positions count from the first letter of the chain named. pKd: −log10 of the molar value.

The target of one assay is T1, FLT3 R834Q (Homo sapiens, UniProt P36888, R834Q).
T1 construct: host or cells: E. coli BL21-derived host (T7 phage) or HEK-293
T1 sequence (P36888 27-993 R834Q): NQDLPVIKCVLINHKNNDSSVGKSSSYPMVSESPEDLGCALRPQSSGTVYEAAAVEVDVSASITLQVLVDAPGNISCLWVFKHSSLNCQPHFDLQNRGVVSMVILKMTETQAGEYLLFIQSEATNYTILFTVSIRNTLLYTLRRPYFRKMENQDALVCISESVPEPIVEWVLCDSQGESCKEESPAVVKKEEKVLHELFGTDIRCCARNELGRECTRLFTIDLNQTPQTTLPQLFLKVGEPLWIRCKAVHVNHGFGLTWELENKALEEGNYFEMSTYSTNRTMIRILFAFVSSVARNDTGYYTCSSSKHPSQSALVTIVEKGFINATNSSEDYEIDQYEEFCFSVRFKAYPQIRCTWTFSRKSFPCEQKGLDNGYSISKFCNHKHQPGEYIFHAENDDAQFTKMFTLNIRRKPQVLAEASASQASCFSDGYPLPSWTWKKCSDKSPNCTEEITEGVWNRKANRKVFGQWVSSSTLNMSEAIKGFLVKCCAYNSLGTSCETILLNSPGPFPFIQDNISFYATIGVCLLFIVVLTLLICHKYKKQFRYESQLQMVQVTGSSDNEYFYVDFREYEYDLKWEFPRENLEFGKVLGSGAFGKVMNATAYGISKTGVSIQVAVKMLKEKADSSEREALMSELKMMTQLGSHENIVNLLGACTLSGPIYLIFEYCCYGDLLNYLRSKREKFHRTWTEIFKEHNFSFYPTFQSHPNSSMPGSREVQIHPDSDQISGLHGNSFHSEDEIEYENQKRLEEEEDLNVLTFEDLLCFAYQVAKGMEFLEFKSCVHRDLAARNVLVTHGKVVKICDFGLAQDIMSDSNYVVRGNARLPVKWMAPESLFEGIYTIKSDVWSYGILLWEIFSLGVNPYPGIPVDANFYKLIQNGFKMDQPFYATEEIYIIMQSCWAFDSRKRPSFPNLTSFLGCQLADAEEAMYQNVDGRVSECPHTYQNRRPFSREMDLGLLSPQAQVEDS
Description: DiscoverX KINOMEscan competition binding, FLT3 R834Q. An excerpt: (§1) Kinase binding data were obtained for various exemplary compounds prepared according to Examples 1-24 using the DiscoverX KINOMVIEscan® active site-directed competition binding site-directed assay protocol described below. […] As a result, the data report thermodynamic interaction affinities (Kd values), rather than IC50 values that are dependent on ATP concentrations. The assay uses a DNA-tagged version of the protein kinase, and an immobilized ligand bound to a solid support. Compounds that directly or indirectly prevent kinase binding to the immobilized ligand reduce the amount of kinase captured on the solid support, which is detected using an ultra-sensitive qPCR method. Affinity constants reported from the assay have been reported to be independent of the immobilized ligand used that is coupled to the solid support (See supplemental information in Fabian, M. A. et. al., (2005) Nat. Biotechnol. 23, 329-336; Wodicka, L. M. et. al., (2010) Chem. Biol. 17, 1241-1249.)
(§2) Kinase-tagged T7 phage strains were prepared in an E. coli host derived from the BL21 strain. E. coli were grown to log-phase and infected with T7 phage and incubated with shaking at 32° C. until lysis. The lysates were centrifuged and filtered to remove cell debris. The remaining kinases were produced in HEK-293 cells and subsequently tagged with DNA for qPCR detection. Streptavidin-coated magnetic beads were treated with biotinylated small molecule ligands for 30 minutes at room temperature to generate affinity resins for kinase assays. The liganded beads were blocked with excess biotin and washed with blocking buffer (SeaBlock (Pierce), 1% BSA, 0.05% Tween 20, 1 mM DTT) to remove unbound ligand and to reduce non-specific binding. Binding reactions were assembled by combining kinases, liganded affinity beads, and test compounds in 1× binding buffer (20% SeaBlock, 0.17×PBS, 0.05% Tween 20, 6 mM DTT). Test compounds were prepared as 111× stocks in 100% DMSO. Kds were determined using an 11-point 3-fold compound dilution series with three DMSO control points. All compounds for Kd measurements are distributed by acoustic transfer (non-contact dispensing) in 100% DMSO. The compounds were then diluted directly into the assays such that the final concentration of DMSO was 0.9%. All reactions were performed in polypropylene 384-well plates. Each was a final volume of 0.02 mL. The assay plates were incubated at room temperature with shaking for 1 hour and the affinity beads were washed with wash buffer (1×PBS, 0.05% Tween 20). The beads were then re-suspended in elution buffer (1×PBS, 0.05% Tween 20, 0.5 μM nonbiotinylated affinity ligand) and incubated at room temperature with shaking for 30 minutes. The kinase concentration in the eluates was measured by qPCR.
(§3) Binding constants (Kds) were calculated with a standard dose-response curve using the Hill equation. The Hill Slope was set to −1. Curves were fitted using a non-linear least square fit with the Levenberg-Marquardt algorithm.

In another assay the target is T2, FLT3 D835Y (Homo sapiens, UniProt P36888, D835Y).
T2 construct: host or cells: E. coli BL21-derived host (T7 phage) or HEK-293
T2 sequence (P36888 27-993 D835Y): T1 sequence (P36888 27-993 R834Q) with Q808R, D809Y
Briefly: DiscoverX KINOMEscan competition binding, FLT3 D835Y.
Description: as §1, §2, §3

`CC1(c2cn3c(-c4cccc(N[C@H]5CNC[C@@H]5F)n4)cnc3cn2)CC1` [Compound 1, N-((3S,4S)-4-fluoropyrrolidin-3-yl)-6-(6-(1-methylcyclopropyl)imidazo[1,2-a]pyrazin-3-yl)pyridin-2-amine]: the negative logarithm of the Kd (pKd) (usually the Kd on a negative log10 scale, so that one unit is a factor of ten) is 9.77 on FLT3 R834Q and 10.31 on FLT3 D835Y.

In the case of `CC1(c2cn3c(-c4cccc(N[C@@H]5CCNC5)n4)cnc3cn2)CC1` [Compound 3, (R)-6-(6-(1-methylcyclopropyl)imidazo[1,2-a]pyrazin-3-yl)-N-(pyrrolidin-3-yl)pyridin-2-amine], the pKd at FLT3 R834Q is 9.85; on FLT3 D835Y, 10.28.

Regarding `CC1(c2cn3c(-c4cccc(N[C@H]5CNCC56CC6)n4)cnc3cn2)CC1` [Compound 5, (R)-N-(6-(6-(1-methylcyclopropyl)imidazo[1,2-a]pyrazin-3-yl)pyridin-2-yl)-5-azaspiro[2.4]heptan-7-amine], the pKd on FLT3 R834Q is 9.89; on FLT3 D835Y it was 10.44.

Consider `FC(F)(F)C1(c2cn3c(-c4cccc(N[C@@H]5CCNC5)n4)cnc3cn2)CC1` [Compound 10, (R)-N-(pyrrolidin-3-yl)-6-(6-(1-(trifluoromethyl)cyclopropyl)imidazo[1,2-a]pyrazin-3-yl)pyridin-2-amine], for which the pKd is 9.09 at FLT3 R834Q and 10.36 on FLT3 D835Y.

Regarding `FC(F)c1cn2c(-c3cccc(N[C@H]4CNC[C@@H]4F)n3)cnc2cn1` [Compound 16, 6-(6-(difluoromethyl)imidazo[1,2-a]pyrazin-3-yl)-N-((3S,4S)-4-fluoropyrrolidin-3-yl)pyridin-2-amine], the figures for the pKd on FLT3 R834Q and at FLT3 D835Y were 8.89 and 10.28, respectively.

Consider `FC(F)c1cn2c(-c3cccc(N[C@H]4CNCC[C@@H]4F)n3)cnc2cn1` [Compound 25, 6-(6-(difluoromethyl)imidazo[1,2-a]pyrazin-3-yl)-N-((3S,4S)-4-fluoropiperidin-3-yl)pyridin-2-amine], for which the figures for the pKd on FLT3 R834Q and at FLT3 D835Y were 9.33 and 10.15, respectively.

For the molecule `CC(C)(O)c1cn2c(-c3cccc(N[C@@H]4CCCNC4)n3)cnc2cn1` [Compound 30, (R)-2-(3-(6-(piperidin-3-ylamino)pyridin-2-yl)imidazo[1,2-a]pyrazin-6-yl)propan-2-ol], the figures for the pKd on FLT3 R834Q and on FLT3 D835Y were 8.37 and 9.33, respectively.

As for `CC(C)(O)c1cn2c(-c3cccc(N[C@H]4CNCC[C@@H]4F)n3)cnc2cn1` [Compound 31, 2-(3-(6-(((3S,4S)-4-fluoropiperidin-3-yl)amino)pyridin-2-yl)imidazo[1,2-a]pyrazin-6-yl)propan-2-ol], the figures for the pKd on FLT3 R834Q and on FLT3 D835Y were 8.66 and 9.74, respectively.

`FC(F)(F)COc1cn2c(-c3cccc(N[C@@H]4CCNC4)n3)cnc2cn1` [Compound 38, (R)-N-(pyrrolidin-3-yl)-6-(6-(2,2,2-trifluoroethoxy)imidazo[1,2-a]pyrazin-3-yl)pyridin-2-amine]: the pKd on FLT3 R834Q is 8.92; on FLT3 D835Y it was 10.46.

Consider `F[C@H]1CNC[C@@H]1Nc1cccc(-c2cnc3cnc(C4CC4)cn23)n1` [Compound 50, 6-(6-cyclopropylimidazo[1,2-a]pyrazin-3-yl)-N-((3S,4S)-4-fluoropyrrolidin-3-yl)pyridin-2-amine], for which the pKd was 9.70 on FLT3 R834Q and 10.36 at FLT3 D835Y.

Regarding `Cn1cc(-c2cn3c(-c4cccc(N[C@H]5CNC[C@@H]5F)n4)cnc3cn2)cn1` [Compound 52, N-((3S,4S)-4-fluoropyrrolidin-3-yl)-6-(6-(1-methyl-1H-pyrazol-4-yl)imidazo[1,2-a]pyrazin-3-yl)pyridin-2-amine], the pKd on FLT3 R834Q was 9.72; at FLT3 D835Y, 10.19.
